How the values were obtained:
[1] = Pharmacokinetic study after intravenous bolus administration of LPV in rats; type: in vivo; conditions: male Wistar rats, 5 mg kg^−1, n = 6, plasma
Experimental: Formulation was administered through tail vein in male Wistar rats (n = 6), weighing 180 to 220 g, at a dose of 5 mg kg^−1 [35]. Blood samples were drawn from retro-orbital plexus of Wistar rats at 0.083, 0.167, 0.25, 0.5, 1, 2, 3, 4, 6, 8, 12 and 24 h post dose in microfuge tube pretreated with sodium citrate solution (3.8% w/v). A baseline blank plasma sample was drawn from each animal before drug administration. All samples were processed according to the procedure described earlier and analyzed using the validated HPLC method.

[2] = Freeze-thaw stability of LPV in rat plasma; type: in vitro ADME, Wistar rat; conditions: rat plasma QC samples, end of three freeze-thaw cycles, frozen at −20 °C
Experimental: Total of four sets were prepared in triplicates and one set of the prepared concentrations was analyzed on the day of preparation (no freeze-thaw cycle) and the remaining three sets were frozen at −20 °C for 24 h. Frozen samples were thawed by keeping the sealed tubes at room temperature for at least 1 h. One set in triplicate was analyzed and the remaining two sets were kept at −20 °C for freezing and were analyzed after two and three freeze-thaw cycles.

[3] = Post extraction stability of processed samples of LPV in rat plasma; type: physicochemical, Wistar rat; conditions: processed rat plasma QC samples kept in auto sampler rack, 24 h
Experimental: Processed samples were kept in the sample rack of auto sampler and samples were analyzed in triplicates every 6 h for 24 h period on the day of preparation. The percentage deviation from the mean concentrations observed at zero time was calculated.

area under the first-moment curve (AUMC) [1]: 4403.07 ± 171.33 h^2 ng mL^−1
AUC ([1]; rat, read-out: area under the curve (AUC)): 3850 ± 264 ng·h/mL
C0 ([1]; rat, read-out: concentration at time zero (Co)): 3170 ± 290 ng/mL
half-life ([1]; rat, read-out: elimination half-life (t½) (converted)): 49.2 ± 1.8 min
MRT ([1]; rat, read-out: mean retention time (MRT)): 69 ± 3 min
clearance ([1]; rat, read-out: total plasma clearance (CLs) (converted)): 22.4 mL/min/kg
Vd ([1]; rat, read-out: volume of distribution (Vss)): 1.59 ± 0.146 L/kg
deviation from the zero time concentration (freeze-thaw stability) [2]: less than 8.0%
maximum deviation from the zero time concentration (post extraction stability) [3]: less than 2.0%
SMILES: Cc1cccc(C)c1OCC(=O)N[C@@H](Cc1ccccc1)[C@@H](O)C[C@H](Cc1ccccc1)NC(=O)[C@H](C(C)C)N1CCCNC1=O [LPV, (2S)-N-[(1S,3S,4S)-1-benzyl-4-{[(2,6-dimethyl-phenoxy)acetyl]amino}-3-hydroxy-5-phenylpentyl]-3-methyl-2-(2-oxotetrahydropyrimidin-1(2H)-yl)butanamide]
